Experimental findings from publication PMC7669867, “Synthesis and initial screening of lactate dehydrogenase inhibitor activity of 1,3-benzodioxole derivatives” (Scientific Reports, 2020) are described below.

As a reminder, the IC50 is the concentration that inhibits the measured activity by half. Broadly, the fraction remaining is what is left of the initial amount, in per cent.

Like-named read-outs stand apart in the source and are kept apart here.

In data set [1] the target is T1, purified recombinant human LDHA protein (Homo sapiens, UniProt P00338).
T1 construct: purchased Abcam
Put plainly: In vitro LDHA inhibitor activity (NADH fluorescence decrease). It is filed as biochemical. Particulars: for LDHB/LDHA: ratio of LDHB IC50 to LDHA IC50 (selectivity); for IC50: synthesized compounds, read-out: LDHA IC50. As to the method:
(§1) The in vitro evaluation of the LDHA inhibitor activities of the synthesized compounds was determined by the NADH intensity decrease through oxidation in a solution of HEPES-K^+, NADH, and pyruvate at a pH = 7.2. The NADH oxidation fluorescence intensity was measured using a spectrofluorometer at 340 nm excitation and 460 nm emission wavelengths, representing the NADH-specific fluorescence spectrum. Furthermore, the in vitro evaluation of the LDHB inhibitor activity was determined as a reverse reaction, which converts lactate to pyruvate by determining the amount of NAD^+ converted to NADH using the above-mentioned spectrophotometric experimental setting (Table 2). Based on this analysis, the half-maximal inhibitory concentration (IC50) of the synthesized compounds was obtained.
In vitro evaluation on LDHA inhibitor activity. LDHA activity assay was performed in accordance with previous studies[16],[18]. Briefly, the various concentrations of compounds were incubated with reaction buffer containing 20 mM HEPES-K^+, 20 μM NADH, 2 mM pyruvate, and 100 ng of purified recombinant human LDHA protein (Abcam, Cambridge, UK). The fluorescence of NADH, which has an excitation wavelength of 340 nm and an emission wavelength of 460 nm, was detected using a microplate spectrofluorometer (Spectramax M2; Molecular Devices, Sunnyvale, CA).

A further data set concerns human glioma U87 cells. Put plainly: Cell viability MTT assay, U87. It is filed as cell-based. Particulars: U-87 MG, MTT, 48 h, read-out: U87 (GI50). As to the method:
(§2) The human pancreatic cancer cell lines, PANC-1 and MiaPaCa-2, human lung cancer A549 cells, human breast cancer MCF-7, and human glioma U87 cells were obtained from the Korean cell line bank (Seoul, Korea). The cells were cultured in Dulbecco’s Modified Eagle Medium (DMEM; ThermoFisher Scientific, Waltham, MA) supplemented with 10% fetal bovine serum (FBS; Sigma-Aldrich) and 1% penicillin/streptomycin (ThermoFisher Scientific). The cells were cultured at 37 °C in an atmosphere containing 5% CO2.
(§3) The potential cytotoxicity of compounds at different concentrations was evaluated using the MTT assay. Briefly, cancer cell lines were pre-incubated in 96-well plates with compounds for 48 h. Subsequently, MTT working solution (2 mg/mL in phosphate buffer solution) was added to each well and the plate was incubated for 4 h at 37 °C in an atmosphere containing 5% CO2. Then, the conditioned media were aspirated, and the formed formazan crystals in living cells were quantified using the microplate reader (Spectramax M2) at 540 nm. The concentrations that produce 50% cell growth inhibition (GI50) were calculated by curves constructed by the plot of cell survival by an assistant of PRISM software (GraphPad, San Diego, CA).
(Tetrazolium dyes change colour on reduction, which living cells bring about.)

Data set [2] deals with human pancreatic cancer PANC-1 cells. Kind of data set: Cell viability MTT assay, PANC-1. It is filed as cell-based. Particulars: Homo sapiens, PANC-1; MTT, 48 h; read-out: PANC-1 (GI50). As to the method: as §2, §3
The subject of another data set is several cancer cells. Kind of data set: Cell viability MTT assay, several cancer cells. Particulars: Homo sapiens, cell line not given, read-out: concentration of half-maximal growth inhibition (GI50). It is filed as cell-based. As for the experimental part:
To assess the anticancer potency of these compounds in several cancer cells, we determined the cell toxicities of these compounds using an MTT assay. […] On the other hand, compound 10 has higher cytotoxicity compared to other compounds in various cancer cell lines. […] There is a small difference between standard compounds and compound 10 in growth inhibition of PANC-1 cells.
as §3

In data set [3] the target is T2, purified recombinant human LDHB protein (Homo sapiens, UniProt P07195).
T2 construct: purchased Abcam
Kind of data set: In vitro LDHB activity assay (NAD+ converted to NADH). Particulars: synthesized compounds; read-out: LDHB IC50. In kind it is biochemical. As to the method:
as §1
In vitro analysis was determined the amount of NAD^+ converted to NADH[33]. The assay mixture composed of 100 mM Tris–HCl buffer (pH 8.0), 200 mM sodium L-lactate, 2.5 mM NAD^+, and 100 ng of purified recombinant human LDHB protein (Abcam). The fluorescence intensity of NADH was measured using a spectrofluorometer (Spectramax M2) at 340 nm as excitation wavelength and 460 nm as emission wavelength which is the specific fluorescence of NADH.

In data set [4] the test system is human lung cancer A549 cells. Put plainly: Cell viability MTT assay, A549. It is filed as cell-based. Particulars: A549, MTT, 48 h, read-out: A549 (GI50). As to the method:
as §2, §3

The test system of data set [5] is human pancreatic cancer MiaPaCa-2 cells. Kind of data set: Cell viability MTT assay, MiaPaCa-2. In kind it is cell-based. Particulars: MIA PaCa-2, MTT, 48 h, read-out: MiaPaCa-2 (GI50). As for the experimental part: as §2, §3
Data set [6] deals with human breast cancer MCF-7. Put plainly: Cell viability MTT assay, MCF-7. In kind it is cell-based. Particulars: MCF7, MTT, 48 h, read-out: MCF-7 (GI50). As for the experimental part:
as §2, §3

Data set [7] is described as follows: in vitro. It is filed as in vitro ADME. Particulars: rat, microsomes, pH 7.4. As to the method: (§4) To finish the reaction, an acetonitrile solution (involved in chlorpropamide) is added. The reaction tubes are centrifuged and the supernatant is withdrawn for analysis by LC–MS/MS.
Another data set has as its target T3, CYP1A2 (Homo sapiens, UniProt P05177).
T3 construct: Pooled Human liver microsomes (Sigma-Aldrich; 0.25 mg/mL); tissue Sigma-Aldrich; host or cells: pooled human liver microsomes
T3 sequence (P05177 1-516): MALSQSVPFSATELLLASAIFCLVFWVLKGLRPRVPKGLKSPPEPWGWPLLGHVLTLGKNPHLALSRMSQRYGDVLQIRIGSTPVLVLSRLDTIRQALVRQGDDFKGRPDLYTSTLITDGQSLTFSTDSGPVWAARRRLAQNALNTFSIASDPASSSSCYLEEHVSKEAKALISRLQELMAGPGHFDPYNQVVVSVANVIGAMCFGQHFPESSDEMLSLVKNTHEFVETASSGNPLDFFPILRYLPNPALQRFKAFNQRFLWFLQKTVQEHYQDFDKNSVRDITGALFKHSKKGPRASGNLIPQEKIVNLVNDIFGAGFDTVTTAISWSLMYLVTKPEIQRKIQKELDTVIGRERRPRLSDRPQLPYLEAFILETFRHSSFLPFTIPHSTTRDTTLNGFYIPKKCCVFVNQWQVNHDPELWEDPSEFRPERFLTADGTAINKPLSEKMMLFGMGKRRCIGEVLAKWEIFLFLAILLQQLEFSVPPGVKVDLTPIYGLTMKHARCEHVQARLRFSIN
Put plainly: CYP isozymes activity assay, CYP1A2. In kind it is in vitro ADME. Particulars: microsomes, 0.1 µM. As to the method:
(§5) Pooled Human liver microsomes (Sigma-Aldrich; 0.25 mg/mL), 0.1 M phosphate buffer solution (pH 7.4), the five most commonly used substrate cocktails, such as 50 µM phenacetin (CYP1A2), 10 µM diclofenac […], 100 µM S-mephenytoin (CYP2C19) 5 µM dextromethorphan (CYP2D6), and 2.5 µM midazolam (CYP3A4), and compound 10 are pre-incubated at 37 °C for 5 min, then incubated with NADPH generation system solution for 15 min. To finish the enzymatic reaction, an acetonitrile solution (containing terfenadine) is added. The reaction tubes are centrifuged and the supernatant is withdrawn for analysis by LC–MS/MS.

The target of another data set is T4, CYP2C19 (Homo sapiens, UniProt P33261).
T4 construct: Pooled Human liver microsomes (Sigma-Aldrich; 0.25 mg/mL); tissue Sigma-Aldrich; host or cells: pooled human liver microsomes
Kind of data set: CYP isozymes activity assay, CYP2C19. In kind it is in vitro ADME. Particulars: microsomes, 0.1 µM. As for the experimental part: as §5

A further data set deals with T5, CYP3A4 (Homo sapiens, UniProt P08684).
T5 construct: Pooled Human liver microsomes (Sigma-Aldrich; 0.25 mg/mL); tissue Sigma-Aldrich; host or cells: pooled human liver microsomes
Kind of data set: CYP isozymes activity assay, CYP3A4. In kind it is in vitro ADME. Particulars: microsomes, 0.1 µM. As to the method: as §5

Data set [8] is described as follows: in vitro. In kind it is in vitro ADME, human. As for the experimental part: (§6) Human and rat plasma (Sigma-Aldrich) are incubated at 37 °C with test compounds. During the incubation, aliquots are withdrawn at 0, 30, 120 min time points and acetonitrile solution (containing chlorpropamide) is added. After vortexing, the aliquots are centrifuged and the supernatant is withdrawn for analysis by LC–MS/MS.

A further data set addresses T6, CYP2C9 (Homo sapiens, UniProt P11712).
T6 construct: Pooled Human liver microsomes (Sigma-Aldrich; 0.25 mg/mL); tissue Sigma-Aldrich; host or cells: pooled human liver microsomes
Kind of data set: CYP isozymes activity assay, CYP2C9. In kind it is in vitro ADME. Particulars: microsomes, 0.1 µM. As to the method:
as §5

Data set [9] is described as follows: in vitro. In kind it is in vitro ADME, rat. As to the method: as §6
A further data set concerns the target T7, CYP2D6 (Homo sapiens, UniProt P10635).
T7 construct: Pooled Human liver microsomes (Sigma-Aldrich; 0.25 mg/mL); tissue Sigma-Aldrich; host or cells: pooled human liver microsomes
Kind of data set: CYP isozymes activity assay, CYP2D6. In kind it is in vitro ADME. Particulars: microsomes, 0.1 µM. As to the method: as §5

A short description of data set [10]: Human liver microsomal stability. Particulars: microsomes, pH 7.4. In kind it is in vitro ADME. As for the experimental part: as §4
On the technique in general: Microsomes from liver hold many membrane-bound enzymes, among them those of drug oxidation.

T2 sequence (P07195 whole entry): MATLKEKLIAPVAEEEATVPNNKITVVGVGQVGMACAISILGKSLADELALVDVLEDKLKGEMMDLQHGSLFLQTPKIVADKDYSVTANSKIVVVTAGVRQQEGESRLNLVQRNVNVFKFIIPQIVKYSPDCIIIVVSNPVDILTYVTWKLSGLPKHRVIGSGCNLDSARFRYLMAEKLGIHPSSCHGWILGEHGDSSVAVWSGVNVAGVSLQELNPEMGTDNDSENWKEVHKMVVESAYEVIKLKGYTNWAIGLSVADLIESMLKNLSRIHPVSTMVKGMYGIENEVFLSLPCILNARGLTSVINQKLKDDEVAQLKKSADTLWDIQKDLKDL
T4 sequence (P33261 whole entry): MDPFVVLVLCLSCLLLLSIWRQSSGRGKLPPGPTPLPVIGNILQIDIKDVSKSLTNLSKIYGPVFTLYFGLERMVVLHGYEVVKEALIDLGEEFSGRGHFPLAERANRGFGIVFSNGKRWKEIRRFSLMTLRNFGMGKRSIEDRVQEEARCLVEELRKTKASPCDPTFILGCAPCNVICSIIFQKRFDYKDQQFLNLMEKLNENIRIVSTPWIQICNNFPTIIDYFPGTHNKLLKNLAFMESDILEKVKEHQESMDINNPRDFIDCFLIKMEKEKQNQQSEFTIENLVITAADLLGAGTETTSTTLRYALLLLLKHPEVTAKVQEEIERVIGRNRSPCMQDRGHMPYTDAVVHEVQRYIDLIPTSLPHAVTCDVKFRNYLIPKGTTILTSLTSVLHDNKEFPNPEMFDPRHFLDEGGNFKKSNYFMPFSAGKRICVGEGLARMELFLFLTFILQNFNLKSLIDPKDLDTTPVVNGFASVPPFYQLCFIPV
T6 sequence (P11712 whole entry): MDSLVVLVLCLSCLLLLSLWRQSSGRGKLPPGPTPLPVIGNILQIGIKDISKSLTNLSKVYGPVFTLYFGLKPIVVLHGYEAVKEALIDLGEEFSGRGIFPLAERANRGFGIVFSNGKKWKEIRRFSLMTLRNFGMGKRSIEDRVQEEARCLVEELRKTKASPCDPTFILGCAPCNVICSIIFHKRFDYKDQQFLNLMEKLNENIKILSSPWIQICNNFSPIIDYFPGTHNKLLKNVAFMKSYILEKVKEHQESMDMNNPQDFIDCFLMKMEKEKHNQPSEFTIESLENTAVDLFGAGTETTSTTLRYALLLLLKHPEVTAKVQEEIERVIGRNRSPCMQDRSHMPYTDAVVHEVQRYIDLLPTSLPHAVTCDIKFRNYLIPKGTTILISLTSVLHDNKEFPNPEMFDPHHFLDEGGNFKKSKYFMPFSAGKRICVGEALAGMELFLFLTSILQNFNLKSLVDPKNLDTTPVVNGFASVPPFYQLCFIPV
T7 sequence (P10635 whole entry): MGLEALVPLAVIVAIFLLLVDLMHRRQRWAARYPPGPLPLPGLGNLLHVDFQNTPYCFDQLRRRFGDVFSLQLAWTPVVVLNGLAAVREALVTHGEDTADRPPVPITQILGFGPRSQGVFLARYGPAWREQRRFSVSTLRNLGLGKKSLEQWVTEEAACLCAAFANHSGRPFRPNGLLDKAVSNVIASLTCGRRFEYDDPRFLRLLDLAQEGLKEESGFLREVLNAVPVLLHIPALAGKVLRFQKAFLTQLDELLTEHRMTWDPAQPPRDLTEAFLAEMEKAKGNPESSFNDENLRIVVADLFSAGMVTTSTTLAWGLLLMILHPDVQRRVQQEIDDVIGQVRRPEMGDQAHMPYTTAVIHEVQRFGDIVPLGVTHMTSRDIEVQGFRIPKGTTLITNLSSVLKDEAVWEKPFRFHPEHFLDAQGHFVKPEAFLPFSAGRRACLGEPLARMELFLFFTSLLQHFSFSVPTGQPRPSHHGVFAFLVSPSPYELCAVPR
T5 sequence (P08684 whole entry): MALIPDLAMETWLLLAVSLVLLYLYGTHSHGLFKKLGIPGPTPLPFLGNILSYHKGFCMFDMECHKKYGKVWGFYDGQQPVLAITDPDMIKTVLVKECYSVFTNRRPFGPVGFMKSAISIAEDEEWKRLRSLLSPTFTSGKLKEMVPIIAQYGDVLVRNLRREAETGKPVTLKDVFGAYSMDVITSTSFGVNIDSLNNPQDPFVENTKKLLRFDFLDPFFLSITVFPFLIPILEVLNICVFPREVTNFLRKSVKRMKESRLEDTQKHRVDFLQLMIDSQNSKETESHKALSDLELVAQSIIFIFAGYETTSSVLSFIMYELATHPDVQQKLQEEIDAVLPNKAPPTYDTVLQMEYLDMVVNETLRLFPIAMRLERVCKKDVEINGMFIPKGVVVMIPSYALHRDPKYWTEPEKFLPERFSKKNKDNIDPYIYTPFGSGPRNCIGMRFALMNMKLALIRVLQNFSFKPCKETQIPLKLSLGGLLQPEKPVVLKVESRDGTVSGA

Turning to `O=C(OCc1ccc2c(c1)OCO2)c1ccc(C(F)(F)F)cc1` [Compound 2], in data set [1], the LDHB/LDHA is listed as 29.00. Moreover, the concentration for half-maximal inhibition (IC50) worked out at 13.6 µM in data set [1] and 395 µM in data set [3]. Also, the GI50 is > 1000 µM with human glioma U87 cells; > 1000 µM in [2]; > 1 mM in the data set on several cancer cells; > 1000 µM in data set [4]; > 1000 µM in data set [5]; > 1000 µM in data set [6].
In the case of `FC(F)(F)c1ccc(Sc2nc3ccccc3s2)cc1` [Compound 10], in data set [1], the LDHB/LDHA was > 21.18. Moreover, the half-inhibitory concentration (IC50) is 47.2 µM in data set [1] and > 1000 µM in data set [3]. Further, the GI50 turned out to be 343 µM in the data set with human glioma U87 cells; 12.2 µM in [2]; 56.5 µM in data set [4]; 88.9 µM in data set [5]; 61.4 µM in [6]. In addition, the fraction remaining at 0.5 h, 1 µM worked out at 5.2% in the data set “in vitro [7]” and 9.5% in data set [10]. Further, the “CYP1A2 isozyme activity (% of control activity)” value at CYP1A2 is recorded as 36.7 % of control activity. Besides, at CYP2C19, the “CYP2C19 isozyme activity (% of control activity)” value is 12.1 % of control activity. Besides, the “CYP3A4 isozyme activity (% of control activity)” value on CYP3A4 is > 100 % of control activity. Besides, the “plasma stability (in words)” value in “in vitro [8]” and in “in vitro [9]” was “stable” each time. Besides, the fraction remaining at 0.5 h was found to be 98.1% in the data set “in vitro [8]” (human, plasma) and 93.8% in “in vitro [9]” (rat, plasma). The share remaining at 2 h in the data set “in vitro [8]” (human, plasma) worked out at 91.6%; in the data set “in vitro [9]” (rat, plasma), 87.5%. In addition, the “CYP2C9 isozyme activity (% of control activity)” value at CYP2C9 is given as 97.4 % of control activity. Further, the “CYP2D6 isozyme activity (% of control activity)” value on CYP2D6 was 95.1 % of control activity.
